Assay [1] concerns the target T1, Recombinant STAT3 protein (STAT3(G127-I722)) (Homo sapiens, UniProt P40763).
T1 construct: Recombinant STAT3 protein (STAT3(G127-I722))
The assay can be described thus: STAT3 Fluorescence Polarization (FP) Assay. The class given is binding. As to conditions: STAT3(G127-I722) 25 nM, probe 5-FAM-GpYLPQTV-NH2 2 nM, 45-minute incubation. Put shortly: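 STAT3(G127-I722), 25 nM, was mixed with 2 nM 5-FAM-GpYLPQTV-NH2 probe in HEPES pH 7.4 buffer with 1% DMSO and serially diluted compound. FP (mP) was read after 45 min at room temperature. IC50 came from nonlinear regression.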
(Fluorescence polarisation rises when a labelled molecule tumbles more slowly, as on binding a larger partner.)

In assay [2] the target is T2, Recombinant STAT6 protein (STAT6(W123-T658)) (Homo sapiens, UniProt P42226).
T2 construct: Recombinant STAT6 protein (STAT6(W123-T658))
T2 sequence (P42226 123-658): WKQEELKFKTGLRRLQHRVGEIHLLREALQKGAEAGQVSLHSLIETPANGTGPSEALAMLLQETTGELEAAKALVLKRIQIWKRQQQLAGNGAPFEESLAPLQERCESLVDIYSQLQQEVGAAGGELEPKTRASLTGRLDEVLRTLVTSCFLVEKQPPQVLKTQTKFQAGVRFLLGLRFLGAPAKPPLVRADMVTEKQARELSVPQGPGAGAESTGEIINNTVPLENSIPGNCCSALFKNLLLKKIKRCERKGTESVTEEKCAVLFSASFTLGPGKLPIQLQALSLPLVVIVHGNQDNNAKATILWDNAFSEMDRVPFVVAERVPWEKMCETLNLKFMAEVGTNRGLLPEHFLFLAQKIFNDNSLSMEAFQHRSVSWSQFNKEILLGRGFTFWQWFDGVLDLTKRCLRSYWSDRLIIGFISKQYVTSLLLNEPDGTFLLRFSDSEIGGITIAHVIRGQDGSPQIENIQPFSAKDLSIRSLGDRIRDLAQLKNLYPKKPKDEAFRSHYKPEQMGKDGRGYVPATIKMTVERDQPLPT
The assay can be described thus: STAT6 Fluorescence Polarization (FP) Assay. In kind it is binding. As to conditions: STAT6(W123-T658) 250 nM, probe 5-FAM-ApYKPFQDLI-NH2 2 nM, 45-minute incubation. The procedure, abridged:
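Displacement of a fluorescent phosphotyrosine peptide (5-FAM-ApYKPFQDLI-NH2, 2 nM) from STAT6(W123-T658) (250 nM), 1% DMSO, pH 7.4 HEPES buffer. After 45 min at room temperature, polarization (mP) was plotted versus log compound concentration and fitted by nonlinear regression to give IC50.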

The structures appear in SMILES notation.

T1 sequence (P40763 127-722): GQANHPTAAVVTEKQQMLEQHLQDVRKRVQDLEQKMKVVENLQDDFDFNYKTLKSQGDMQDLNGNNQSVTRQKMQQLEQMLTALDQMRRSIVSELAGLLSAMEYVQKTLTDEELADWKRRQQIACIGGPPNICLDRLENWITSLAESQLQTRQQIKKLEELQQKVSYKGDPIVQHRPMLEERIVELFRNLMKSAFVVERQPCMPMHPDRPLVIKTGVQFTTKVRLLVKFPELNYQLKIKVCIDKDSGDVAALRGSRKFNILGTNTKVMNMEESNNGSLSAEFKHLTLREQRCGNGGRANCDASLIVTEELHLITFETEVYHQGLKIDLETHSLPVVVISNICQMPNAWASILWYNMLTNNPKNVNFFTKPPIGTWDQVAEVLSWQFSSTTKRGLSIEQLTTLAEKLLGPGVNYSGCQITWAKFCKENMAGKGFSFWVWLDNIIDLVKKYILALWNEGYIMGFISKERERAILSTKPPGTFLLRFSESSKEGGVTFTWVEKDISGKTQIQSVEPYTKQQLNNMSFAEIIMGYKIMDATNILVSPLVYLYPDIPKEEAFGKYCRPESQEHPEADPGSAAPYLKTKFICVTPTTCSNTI

`O=C(N[C@H]1CN(C(=O)c2ncn3ccccc23)CC[C@H]2CC[C@@H](C(=O)N3CCOCC3)N2C1=O)c1ccc2ccc(C(F)P(=O)(O)O)cc2c1` (stereo partly drawn) [Compound 357, (fluoro(7-(((5S,8S,10aR)-3-(imidazo[1,5-a]pyridine-1-carbonyl)-8-(morpholine-4-carbonyl)-6-oxodecahydro-pyrrolo[1,2-a][1,5]diazocin-5-yl)carbamoyl)naphthalen-2-yl)methyl)phosphonic acid]: the concentration for half-maximal inhibition (IC50) in assay [1] was over 10 µM; in assay [2], 0.3 to 3 µM.
Taken in the same sequence, the figures for `O=C(N[C@H]1CN(C(=O)c2noc3c2CCCC3)CC[C@H]2CC[C@@H](C(=O)N3CCOCC3)N2C1=O)c1ccc2ccc(C(F)P(=O)(O)O)cc2c1` (stereo partly drawn) [Compound 358, (fluoro(7-(((5S,8S,10aR)-8-(morpholine-4-carbonyl)-6-oxo-3-(4,5,6,7-tetra-hydrobenzo[d]isoxazole-3-carbonyl)decahydropyrrolo [1,2-a][1,5]diazocin-5-yl)carbamoyl)naphthalen-2-yl)methyl)phosphonic acid] were over 10 µM and 0.3 to 3 µM.
`O=C(N[C@H]1CN(C(=O)c2cc3ncccn3n2)CC[C@H]2CC[C@@H](C(=O)N3CCOCC3)N2C1=O)c1ccc2ccc(C(F)P(=O)(O)O)cc2c1` (stereo partly drawn) [Compound 359, (fluoro(7-(((5S,8S,10aR)-8-(morpholine-4-carbonyl)-6-oxo-3-(pyrazolo[1,5-a]pyrimidine-2-carbonyl)decahydropyrrolo[1,2-a] [1,5]diazocin-5-yl)carbamoyl)naphthalen-2-yl)methyl)phosphonic acid]: the concentration for half-maximal inhibition (IC50) is over 10 µM in assay [1] and 0.3 to 3 µM in assay [2].
Take `O=C(N[C@H]1CN(C(=O)c2noc3c2COCC3)CC[C@H]2CC[C@@H](C(=O)N3CCOCC3)N2C1=O)c1ccc2ccc(C(F)P(=O)(O)O)cc2c1` (stereo partly drawn) [Compound 360, ((7-(((5S,8S,10aR)-3-(6,7-dihydro-4H-pyrano[3,4-d]isoxazole-3-carbonyl)-8-(morpholine-4-carbonyl)-6-oxodecahydropyrrolo [1,2-a][1,5]diazocin-5-yl)carbamoyl)naphthalen-2-yl)fluoromethyl) phosphonic acid]: the IC50 in assay [1] is over 10 µM; in assay [2], 0.3 to 3 µM.
Taken in the same sequence, the figures for `CCCS(=O)(=O)N1CC[C@H]2CC[C@@H](C(=O)N3CCOCC3)N2C(=O)[C@@H](NC(=O)c2ccc3ccc(C(F)P(=O)(O)O)cc3c2)C1` (stereo partly drawn) [Compound 361, (fluoro(7-(((5S,8S,10aR)-8-(morpholine-4-carbonyl)-6-oxo-3-(propylsulfonyl)decahydropyrrolo[1,2-a] [1,5]diazocin-5-yl)carbamoyl)naphthalen-2-yl)methyl)phosphonic acid] were over 10 µM and 3 to 30 µM.
Taken in the same sequence, the figures for `COc1ccc2onc(C(=O)N3CC[C@H]4CC[C@@H](C(=O)N5CCOCC5)N4C(=O)[C@@H](NC(=O)c4ccc5ccc(C(F)P(=O)(O)O)cc5c4)C3)c2c1` (stereo partly drawn) [Compound 362, (fluoro(7-(((5S,8S,10aR)-3-(5-methoxybenzo[d]isoxazole-3-carbonyl)-8-(morpholine-4-carbonyl)-6-oxodecahydropyrrolo [1,2-a][1,5]diazocin-5-yl)carbamoyl)naphthalen-2-yl)methyl)phosphonic acid] were over 10 µM and at most 0.3 µM.
Taken in the same sequence, the figures for `COc1ccc2c(C(=O)N3CC[C@H]4CC[C@@H](C(=O)N5CCOCC5)N4C(=O)[C@@H](NC(=O)c4ccc5ccc(C(F)P(=O)(O)O)cc5c4)C3)noc2c1` (stereo partly drawn) [Compound 363, (fluoro(7-(((5S,8S,10aR)-3-(6-methoxybenzoyl[d]isoxazole-3-carbonyl)-8-(morpholine-4-carbonyl)-6-oxodecahydropyrrolo [1,2-a][1,5]diazocin-5-yl)carbamoyl)naphthalen-2-yl)methyl)phosphonic acid] were over 10 µM and at most 0.3 µM.

Usually IC50 stands for the concentration at which inhibition is half-maximal.

(Values after US20250179103A1, “6-OXODECAHYDROPYRROLO[1,2-A][1,5]DIAZOCINE AND 6-OXODECAHYDRO-4H-PYRROLO[2,1-D][1,5]THIAZOCINE DERIVATIVES AS STAT3 AND STAT6 MODULATORS FOR THE TREATMENT OF CANCER AND INFLAMMATORY CONDITIONS” (Recludix Pharma, Inc., priority 2022, published 2025).)
